From PubChem BioAssay (NCI)
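These data come from cells grown in 96-well plates and exposed to compound for 48 hours at five concentrations. TGI is the concentration that stops growth completely.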

system: 786-0 renal; test: growth of human tumour cells (NCI), 48 h

Question: How did the TGI turn out when CN(C)c1nc(=Nc2ccc3c(c2)OCO3)ss1 was run?
Answer: Its TGI is > 100 µM.

Question: For CCN1C(=O)N(C)C(O)c2c1nc1ccccn1c2=O (centres undefined), which TGI is on record?
Answer: Its TGI is 98.4 µM.

Question: How did the TGI turn out when Cc1cc(NS(=O)(=O)c2ccc(Nc3c4ccccc4nc4c(C(=O)Nc5ccc(S(N)(=O)=O)cc5)cccc34)cc2)no1 was run?
Answer: The TGI was > 100 µM.

Question: With CCCCc1c2c(nc3c1CCCC3=O)C(=O)CCC2 as the molecule, how does the TGI read?
Answer: The TGI was > 100 µM.

Question: How did the TGI turn out when CNc1ccc(/C=C2\C=Cc3ccccc32)cc1 was run?
Answer: The TGI was > 100 µM.

system: A498 renal; test: growth of human tumour cells (NCI), 48 h

Question: How did the TGI turn out when CN(C)c1nc(=Nc2ccc3c(c2)OCO3)ss1 was run?
Answer: The TGI was > 100 µM.

Question: CCN1C(=O)N(C)C(O)c2c1nc1ccccn1c2=O (centres undefined) was tested. Which TGI did it give?
Answer: Its TGI is 66.2 µM.

Question: For Cc1cc(NS(=O)(=O)c2ccc(Nc3c4ccccc4nc4c(C(=O)Nc5ccc(S(N)(=O)=O)cc5)cccc34)cc2)no1, which TGI is on record?
Answer: Its TGI is > 100 µM.

Question: For CCCCc1c2c(nc3c1CCCC3=O)C(=O)CCC2, which TGI is on record?
Answer: The TGI was > 100 µM.

Question: With CNc1ccc(/C=C2\C=Cc3ccccc32)cc1 as the molecule, how does the TGI read?
Answer: The TGI was 96.8 µM.

system: A549 NSCLC; test: growth of human tumour cells (NCI), 48 h

Question: CN(C)c1nc(=Nc2ccc3c(c2)OCO3)ss1 was tested. Which TGI did it give?
Answer: Its TGI is > 100 µM.

Question: Which TGI does the source give for CCN1C(=O)N(C)C(O)c2c1nc1ccccn1c2=O (centres undefined) here?
Answer: Its TGI is 98.6 µM.

Question: With Cc1cc(NS(=O)(=O)c2ccc(Nc3c4ccccc4nc4c(C(=O)Nc5ccc(S(N)(=O)=O)cc5)cccc34)cc2)no1 as the molecule, how does the TGI read?
Answer: Its TGI is > 100 µM.

Question: With CCCCc1c2c(nc3c1CCCC3=O)C(=O)CCC2 as the molecule, how does the TGI read?
Answer: Its TGI is > 100 µM.

Question: How did the TGI turn out when CNc1ccc(/C=C2\C=Cc3ccccc32)cc1 was run?
Answer: Its TGI is > 100 µM.

system: ACHN renal; test: growth of human tumour cells (NCI), 48 h

Question: For CN(C)c1nc(=Nc2ccc3c(c2)OCO3)ss1, which TGI is on record?
Answer: The TGI was > 100 µM.

Question: For CCN1C(=O)N(C)C(O)c2c1nc1ccccn1c2=O (centres undefined), which TGI is on record?
Answer: The TGI was > 100 µM.

Question: For Cc1cc(NS(=O)(=O)c2ccc(Nc3c4ccccc4nc4c(C(=O)Nc5ccc(S(N)(=O)=O)cc5)cccc34)cc2)no1, which TGI is on record?
Answer: The TGI was > 100 µM.

Question: With CCCCc1c2c(nc3c1CCCC3=O)C(=O)CCC2 as the molecule, how does the TGI read?
Answer: Its TGI is > 100 µM.

Question: Which TGI does the source give for CNc1ccc(/C=C2\C=Cc3ccccc32)cc1 here?
Answer: Its TGI is 54.5 µM.

system: CAKI-1 renal; test: growth of human tumour cells (NCI), 48 h

Question: With CN(C)c1nc(=Nc2ccc3c(c2)OCO3)ss1 as the molecule, how does the TGI read?
Answer: Its TGI is > 100 µM.

Question: How did the TGI turn out when Cc1cc(NS(=O)(=O)c2ccc(Nc3c4ccccc4nc4c(C(=O)Nc5ccc(S(N)(=O)=O)cc5)cccc34)cc2)no1 was run?
Answer: Its TGI is > 100 µM.

Question: For CNc1ccc(/C=C2\C=Cc3ccccc32)cc1, which TGI is on record?
Answer: Its TGI is > 100 µM.

system: CCRF-CEM leukemia; test: growth of human tumour cells (NCI), 48 h

Question: Which TGI does the source give for CN(C)c1nc(=Nc2ccc3c(c2)OCO3)ss1 here?
Answer: The TGI was > 100 µM.

Question: How did the TGI turn out when CCN1C(=O)N(C)C(O)c2c1nc1ccccn1c2=O (centres undefined) was run?
Answer: The TGI was 95.5 µM.

Question: Which TGI does the source give for Cc1cc(NS(=O)(=O)c2ccc(Nc3c4ccccc4nc4c(C(=O)Nc5ccc(S(N)(=O)=O)cc5)cccc34)cc2)no1 here?
Answer: Its TGI is 79.9 µM.

Question: CCCCc1c2c(nc3c1CCCC3=O)C(=O)CCC2 was tested. Which TGI did it give?
Answer: Its TGI is > 100 µM.

Question: CNc1ccc(/C=C2\C=Cc3ccccc32)cc1 was tested. Which TGI did it give?
Answer: The TGI was > 100 µM.

system: COLO 205 colon; test: growth of human tumour cells (NCI), 48 h

Question: How did the TGI turn out when CCN1C(=O)N(C)C(O)c2c1nc1ccccn1c2=O (centres undefined) was run?
Answer: Its TGI is 37.6 µM.

Question: Cc1cc(NS(=O)(=O)c2ccc(Nc3c4ccccc4nc4c(C(=O)Nc5ccc(S(N)(=O)=O)cc5)cccc34)cc2)no1 was tested. Which TGI did it give?
Answer: Its TGI is > 100 µM.

Question: With CCCCc1c2c(nc3c1CCCC3=O)C(=O)CCC2 as the molecule, how does the TGI read?
Answer: The TGI was > 100 µM.

Question: How did the TGI turn out when CNc1ccc(/C=C2\C=Cc3ccccc32)cc1 was run?
Answer: The TGI was 33.3 µM.

system: DLD-1 colon; test: growth of human tumour cells (NCI), 48 h

Question: CN(C)c1nc(=Nc2ccc3c(c2)OCO3)ss1 was tested. Which TGI did it give?
Answer: The TGI was > 100 µM.

Question: For CCN1C(=O)N(C)C(O)c2c1nc1ccccn1c2=O (centres undefined), which TGI is on record?
Answer: Its TGI is > 100 µM.

Question: Which TGI does the source give for Cc1cc(NS(=O)(=O)c2ccc(Nc3c4ccccc4nc4c(C(=O)Nc5ccc(S(N)(=O)=O)cc5)cccc34)cc2)no1 here?
Answer: Its TGI is > 100 µM.

Question: Which TGI does the source give for CCCCc1c2c(nc3c1CCCC3=O)C(=O)CCC2 here?
Answer: Its TGI is > 100 µM.

Question: How did the TGI turn out when CNc1ccc(/C=C2\C=Cc3ccccc32)cc1 was run?
Answer: Its TGI is > 100 µM.

system: DMS 114 small cell lung; test: growth of human tumour cells (NCI), 48 h

Question: How did the TGI turn out when CN(C)c1nc(=Nc2ccc3c(c2)OCO3)ss1 was run?
Answer: Its TGI is > 100 µM.

Question: CCN1C(=O)N(C)C(O)c2c1nc1ccccn1c2=O (centres undefined) was tested. Which TGI did it give?
Answer: The TGI was > 100 µM.

Question: How did the TGI turn out when Cc1cc(NS(=O)(=O)c2ccc(Nc3c4ccccc4nc4c(C(=O)Nc5ccc(S(N)(=O)=O)cc5)cccc34)cc2)no1 was run?
Answer: Its TGI is 77.3 µM.

Question: With CCCCc1c2c(nc3c1CCCC3=O)C(=O)CCC2 as the molecule, how does the TGI read?
Answer: Its TGI is > 100 µM.

Question: For CNc1ccc(/C=C2\C=Cc3ccccc32)cc1, which TGI is on record?
Answer: The TGI was 44.9 µM.

system: DMS 273 small cell lung; test: growth of human tumour cells (NCI), 48 h

Question: For CN(C)c1nc(=Nc2ccc3c(c2)OCO3)ss1, which TGI is on record?
Answer: The TGI was > 100 µM.

Question: CCN1C(=O)N(C)C(O)c2c1nc1ccccn1c2=O (centres undefined) was tested. Which TGI did it give?
Answer: Its TGI is 42.4 µM.

Question: With Cc1cc(NS(=O)(=O)c2ccc(Nc3c4ccccc4nc4c(C(=O)Nc5ccc(S(N)(=O)=O)cc5)cccc34)cc2)no1 as the molecule, how does the TGI read?
Answer: The TGI was > 100 µM.

Question: Which TGI does the source give for CCCCc1c2c(nc3c1CCCC3=O)C(=O)CCC2 here?
Answer: Its TGI is > 100 µM.

Question: Which TGI does the source give for CNc1ccc(/C=C2\C=Cc3ccccc32)cc1 here?
Answer: Its TGI is 71.3 µM.

system: EKVX NSCLC; test: growth of human tumour cells (NCI), 48 h

Question: CN(C)c1nc(=Nc2ccc3c(c2)OCO3)ss1 was tested. Which TGI did it give?
Answer: Its TGI is > 100 µM.

Question: With CCN1C(=O)N(C)C(O)c2c1nc1ccccn1c2=O (centres undefined) as the molecule, how does the TGI read?
Answer: Its TGI is 53 µM.

Question: How did the TGI turn out when Cc1cc(NS(=O)(=O)c2ccc(Nc3c4ccccc4nc4c(C(=O)Nc5ccc(S(N)(=O)=O)cc5)cccc34)cc2)no1 was run?
Answer: Its TGI is > 100 µM.

Question: With CCCCc1c2c(nc3c1CCCC3=O)C(=O)CCC2 as the molecule, how does the TGI read?
Answer: Its TGI is > 100 µM.

Question: With CNc1ccc(/C=C2\C=Cc3ccccc32)cc1 as the molecule, how does the TGI read?
Answer: The TGI was 91.1 µM.

system: HCC-2998 colon; test: growth of human tumour cells (NCI), 48 h

Question: With CN(C)c1nc(=Nc2ccc3c(c2)OCO3)ss1 as the molecule, how does the TGI read?
Answer: Its TGI is > 100 µM.

Question: Which TGI does the source give for CCN1C(=O)N(C)C(O)c2c1nc1ccccn1c2=O (centres undefined) here?
Answer: Its TGI is 43.6 µM.

Question: With CCCCc1c2c(nc3c1CCCC3=O)C(=O)CCC2 as the molecule, how does the TGI read?
Answer: Its TGI is > 100 µM.

Question: CNc1ccc(/C=C2\C=Cc3ccccc32)cc1 was tested. Which TGI did it give?
Answer: The TGI was 31.4 µM.

system: HCT-116 colon; test: growth of human tumour cells (NCI), 48 h

Question: CN(C)c1nc(=Nc2ccc3c(c2)OCO3)ss1 was tested. Which TGI did it give?
Answer: The TGI was > 100 µM.

Question: For CCN1C(=O)N(C)C(O)c2c1nc1ccccn1c2=O (centres undefined), which TGI is on record?
Answer: The TGI was 84.1 µM.

Question: Cc1cc(NS(=O)(=O)c2ccc(Nc3c4ccccc4nc4c(C(=O)Nc5ccc(S(N)(=O)=O)cc5)cccc34)cc2)no1 was tested. Which TGI did it give?
Answer: The TGI was > 100 µM.

Question: Which TGI does the source give for CCCCc1c2c(nc3c1CCCC3=O)C(=O)CCC2 here?
Answer: The TGI was > 100 µM.

Question: How did the TGI turn out when CNc1ccc(/C=C2\C=Cc3ccccc32)cc1 was run?
Answer: Its TGI is > 100 µM.

system: HCT-15 colon; test: growth of human tumour cells (NCI), 48 h

Question: How did the TGI turn out when CN(C)c1nc(=Nc2ccc3c(c2)OCO3)ss1 was run?
Answer: Its TGI is > 100 µM.

Question: For CCN1C(=O)N(C)C(O)c2c1nc1ccccn1c2=O (centres undefined), which TGI is on record?
Answer: Its TGI is > 100 µM.

Question: With Cc1cc(NS(=O)(=O)c2ccc(Nc3c4ccccc4nc4c(C(=O)Nc5ccc(S(N)(=O)=O)cc5)cccc34)cc2)no1 as the molecule, how does the TGI read?
Answer: Its TGI is > 100 µM.

Question: How did the TGI turn out when CCCCc1c2c(nc3c1CCCC3=O)C(=O)CCC2 was run?
Answer: Its TGI is > 100 µM.

Question: Which TGI does the source give for CNc1ccc(/C=C2\C=Cc3ccccc32)cc1 here?
Answer: The TGI was > 100 µM.

system: HL-60(TB) leukemia; test: growth of human tumour cells (NCI), 48 h

Question: CN(C)c1nc(=Nc2ccc3c(c2)OCO3)ss1 was tested. Which TGI did it give?
Answer: Its TGI is 60 µM.

Question: Which TGI does the source give for CCN1C(=O)N(C)C(O)c2c1nc1ccccn1c2=O (centres undefined) here?
Answer: The TGI was 90.7 µM.

Question: CCCCc1c2c(nc3c1CCCC3=O)C(=O)CCC2 was tested. Which TGI did it give?
Answer: Its TGI is > 100 µM.
